Reference: patent US9120771B2, “Azetidine derivative and antidepressant composition including the same” (KOREA INSTITUTE OF SCIENCE AND TECHNOLOGY, priority 2011, dated 2015)
Structures can show the parent of a compound that is named as a salt. Where two headings read alike, the source gives them in different places.

Assays:
[1] = biological target: human norepinephrine transporter (Homo sapiens (Human), UniProt P23975); test: hNET binding assay ([3H]Nisoxetine); settings: for inhibition at 10 µM: read-out: hNET binding assay %-inhibition (10 uM)
Experimental: NE transporter binding assay for evaluating binding of the compound to the norepinephrine transporter was carried out using human recombinant norepinephrine transporter membrane (PerkinElmer Life and Analytical Sciences, USA) expressed in MDCK cells and radioisotope [^3H]Nisoxetine (PerkinElmer).
That is, the test drug, 6 nM [^3H]Nisoxetine, norepinephrine transporter membrane (11 ug/well), 120 mM NaCl and 50 mM Tris-HCl buffer (pH 7.4) containing 5 mM KCl were added to obtain a reaction mixture with a final volume of 0.25 ml. After incubation for 60 minutes at 4° C., the mixture was quickly passed through a Filtermat A glass fiber filter pre-soaked with 0.5% (w/v) PEI (polyethyleneimine) using Inotech Harvester (Inotech) to terminate the reaction. After washing with cold washing buffer (50 mM Tris-HCl, pH 7.4, 0.9% NaCl) solution, the filter was covered with MeltiLex and sealed in a sample bag. After drying in an oven, radioactivity was counted using MicroBeta Plus (Wallac).
Non-specific binding was measured in the presence of 1 uM desipramine. The IC50 value of the test drug was calculated from non-linear regression analysis (GraphPad Prism Program, San Diego, USA) of each %-inhibition value obtained from the drug with concentrations of 7th and 8th steps.

[2] = biological target: human serotonin transporter (Homo sapiens (Human), UniProt P31645); test: hSERT binding assay ([3H]Imipramine); settings: for inhibition at 10 µM: read-out: hSERT binding assay %-inhibition (10 uM);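 as to all read-outs here: displacement of radiolabeled imipramine from the transporter, incubated 30 min at 27 °C in Tris-HCl pH 7.4 with NaCl and KCl, bound radioactivity counted after filtration, nonspecific binding defined with 200 uM imipramine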
[3] = biological target: human dopamine transporter (Homo sapiens (Human), UniProt Q01959); test: hDAT binding assay ([3H]WIN35,428); settings: for IC50: membrane from CHO-K1 cells, 8 nM [3H]WIN35,428; for inhibition at 10 µM: read-out: hDAT binding assay %-inhibition (10 uM);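 as to all read-outs here: displacement of the radioligand from the transporter membranes, incubated 120 min at 4 °C in Tris-HCl buffer with NaCl, pH 7.4, measured by filter-bound radioactivity counting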
[4] = 10 uM, membrane from MDCK cells
[5] = membrane from MDCK cells, 6 nM [3H]Nisoxetine
[6] = 10 uM, membrane from HEK293 cells
[7] = membrane from HEK293 cells, 2 nM [3H]Imipramine

Chain of human serotonin transporter (P31645 whole entry): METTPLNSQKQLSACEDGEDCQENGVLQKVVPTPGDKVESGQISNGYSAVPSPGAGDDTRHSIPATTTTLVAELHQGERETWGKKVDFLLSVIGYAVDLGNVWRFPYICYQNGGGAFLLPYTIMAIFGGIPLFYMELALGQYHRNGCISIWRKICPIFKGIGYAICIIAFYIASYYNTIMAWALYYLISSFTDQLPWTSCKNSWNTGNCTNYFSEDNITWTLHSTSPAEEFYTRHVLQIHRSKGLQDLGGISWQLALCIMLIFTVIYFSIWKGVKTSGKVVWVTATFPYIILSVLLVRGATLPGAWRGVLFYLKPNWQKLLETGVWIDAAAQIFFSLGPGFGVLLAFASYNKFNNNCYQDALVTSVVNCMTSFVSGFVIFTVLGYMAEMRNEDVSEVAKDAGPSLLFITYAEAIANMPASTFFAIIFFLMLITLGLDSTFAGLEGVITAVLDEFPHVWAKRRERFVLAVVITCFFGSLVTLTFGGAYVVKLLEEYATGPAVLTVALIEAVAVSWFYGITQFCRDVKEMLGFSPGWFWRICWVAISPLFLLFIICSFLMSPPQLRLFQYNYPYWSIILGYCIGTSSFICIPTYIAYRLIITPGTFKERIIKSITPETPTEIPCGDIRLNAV
Chain of human dopamine transporter (Q01959 whole entry): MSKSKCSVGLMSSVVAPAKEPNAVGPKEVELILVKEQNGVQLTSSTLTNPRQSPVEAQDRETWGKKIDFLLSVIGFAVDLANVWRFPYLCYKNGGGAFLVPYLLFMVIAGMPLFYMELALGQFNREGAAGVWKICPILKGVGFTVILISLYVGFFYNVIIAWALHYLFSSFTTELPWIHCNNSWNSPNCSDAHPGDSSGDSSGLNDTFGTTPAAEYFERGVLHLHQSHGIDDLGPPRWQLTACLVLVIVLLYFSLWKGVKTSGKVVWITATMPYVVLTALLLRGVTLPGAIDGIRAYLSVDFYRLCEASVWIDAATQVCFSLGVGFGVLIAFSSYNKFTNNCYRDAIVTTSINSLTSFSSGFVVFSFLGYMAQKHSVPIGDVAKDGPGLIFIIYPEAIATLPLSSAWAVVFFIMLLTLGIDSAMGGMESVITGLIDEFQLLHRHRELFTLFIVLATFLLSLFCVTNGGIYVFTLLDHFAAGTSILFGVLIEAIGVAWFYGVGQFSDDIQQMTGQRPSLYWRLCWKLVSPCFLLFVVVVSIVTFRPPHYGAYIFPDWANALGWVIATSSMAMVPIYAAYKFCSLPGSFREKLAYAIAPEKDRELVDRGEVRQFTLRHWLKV
Chain of human norepinephrine transporter (P23975 whole entry): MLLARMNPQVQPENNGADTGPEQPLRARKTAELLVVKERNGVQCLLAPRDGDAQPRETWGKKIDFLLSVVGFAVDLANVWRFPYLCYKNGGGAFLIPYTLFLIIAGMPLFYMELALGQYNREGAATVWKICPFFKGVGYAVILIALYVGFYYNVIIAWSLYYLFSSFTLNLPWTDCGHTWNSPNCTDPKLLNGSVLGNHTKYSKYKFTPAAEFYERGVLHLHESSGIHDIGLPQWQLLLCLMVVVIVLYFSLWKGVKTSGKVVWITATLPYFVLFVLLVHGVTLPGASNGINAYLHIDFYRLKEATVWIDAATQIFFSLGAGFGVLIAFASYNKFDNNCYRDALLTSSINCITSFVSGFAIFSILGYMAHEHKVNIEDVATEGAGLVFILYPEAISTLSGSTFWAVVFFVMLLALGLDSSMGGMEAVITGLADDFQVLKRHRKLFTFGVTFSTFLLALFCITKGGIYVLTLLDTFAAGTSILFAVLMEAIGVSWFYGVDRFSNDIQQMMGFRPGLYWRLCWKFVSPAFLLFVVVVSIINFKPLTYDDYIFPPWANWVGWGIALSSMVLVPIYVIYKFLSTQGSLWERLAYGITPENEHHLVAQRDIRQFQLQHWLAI

Row | Structure (SMILES) | melting point [°C] | other results
1 | Cl.Clc1ccc(OC(c2ccc3ccccc3c2)C2CNC2)cc1 (stereo not shown) | 211 | 
2 | Cl.Fc1cc(C(Oc2ccc(Cl)cc2)C2CNC2)ccc1Cl (stereo not shown) | 203 | 
3 | Cl.O=C(OC(c1ccccc1)C1CNC1)c1ccccc1 (stereo not shown) [KHG26771, azetidine-3-yl(phenyl)methyl benzoate hydrochloride] | 215 | inhibition at 10 µM [1, 4]: 54%; IC50 [2]: 402 nM; inhibition at 10 µM [2]: 92%; IC50 [3]: 1680 nM; inhibition at 10 µM [3]: 77%
4 | Cl.Clc1ccccc1OC(c1ccc2ccccc2c1)C1CNC1 (stereo not shown) | 207 | 
5 | CCOC(c1ccc(Cl)c(F)c1)C1CNC1.Cl (stereo not shown) | 215 | 
6 | Cl.Fc1ccc(OC(c2ccc3ccccc3c2)C2CNC2)cc1 (stereo not shown) | 214 | 
7 | CCOC(c1ccccc1)C1CNC1.Cl (stereo not shown) | 205 | 
8 | Cl.Fc1cccc(OC(c2ccc3ccccc3c2)C2CNC2)c1 (stereo not shown) | 216 | 
9 | Clc1ccc(C(Oc2ccccc2)C2CNC2)cc1Cl (stereo not shown) (as salt: hydrochloride) [KHG26767, 3-((3,4-dichlorophenyl)(phenoxy)methyl)azetidine hydrochloride] | 175 | 
10 | CCOC(c1ccc(Cl)cc1)C1CNC1.Cl (stereo not shown) [KHG26754, 3-((4-chlorophenyl)(ethoxy)methyl)azetidine hydrochloride] | 190 | inhibition at 10 µM [1, 4]: 91%; IC50 [1, 5]: 666 nM; inhibition at 10 µM [2, 6]: 95%; IC50 [2, 7]: 120 nM; IC50 [3]: 1950 nM; inhibition at 10 µM [3]: 76%
11 | Cl.Fc1ccc(C(Oc2cccc(OC(F)(F)F)c2)C2CNC2)cc1Cl (stereo not shown) | 157 | 
12 | Cl.Fc1ccc(C(Oc2ccc(Cl)cc2)C2CNC2)cc1Cl (stereo not shown) | 218 | 
13 | CCOC(c1ccc2ccccc2c1)C1CNC1.Cl (stereo not shown) | 205 | 
14 | Cl.Fc1cc(C(Oc2ccccc2Cl)C2CNC2)ccc1Cl (stereo not shown) | 220 | 
15 | Cl.FC(F)(F)Oc1ccccc1OC(c1ccc(Cl)c(Cl)c1)C1CNC1 (stereo not shown) | 225 | 
16 | Cl.Fc1cc(C(OCc2ccccc2)C2CNC2)ccc1Cl (stereo not shown) | 191 | 
17 | COC(c1ccc(Cl)cc1)C1CNC1.Cl (stereo not shown) [KHG26753, 3-((4-chlorophenyl)(methoxy)methyl)azetidine hydrochloride] | 281 | inhibition at 10 µM [1, 4]: 52%; inhibition at 10 µM [2, 6]: 95%; IC50 [2, 7]: 42.9 nM; inhibition at 10 µM [3]: 58%
18 | Cc1cccc(OC(c2ccc(F)c(F)c2)C2CNC2)c1.Cl (stereo not shown) | 189 | 
19 | Cl.Fc1ccc(C(Oc2ccccc2F)C2CNC2)cc1F (stereo not shown) | 187 | 
20 | Cl.Fc1ccc(OC(c2ccc(Cl)c(Cl)c2)C2CNC2)cc1 (stereo not shown) | 210 | 
21 | Cl.FC(F)(F)Oc1ccc(OC(c2ccc3ccccc3c2)C2CNC2)cc1 (stereo not shown) | 209 | 
22 | Cl.Clc1ccc(C(Oc2ccccc2Cl)C2CNC2)cc1Cl (stereo not shown) | 197 | 
23 | Cc1ccccc1OC(c1ccc(F)c(Cl)c1)C1CNC1.Cl (stereo not shown) | 209 | 
24 | Cl.FC(F)(F)Oc1cccc(OC(c2ccc(Cl)c(Cl)c2)C2CNC2)c1 (stereo not shown) | 208 | 
25 | Cl.Fc1ccc(OC(c2ccc(F)c(Cl)c2)C2CNC2)cc1F (stereo not shown) | 187 | 
26 | Cl.Fc1ccc(C(Oc2ccccc2F)C2CNC2)cc1Cl (stereo not shown) | 194 | 

Row | Structure (SMILES) | melting point [°C] | other results
27 | Cl.OC(c1ccccc1)C1CNC1 (stereo not shown) | 223 | 
28 | Cl.Fc1ccc(C(Oc2cccc(Cl)c2)C2CNC2)cc1Cl (stereo not shown) | 205 | 
29 | Cl.Fc1ccc(C(Oc2cccc(Cl)c2)C2CNC2)cc1F (stereo not shown) | 152 | 
30 | Cl.Clc1ccc(OC(c2ccc(Cl)c(Cl)c2)C2CNC2)cc1Cl (stereo not shown) | 208 | 
31 | Cl.Fc1ccccc1OC(c1ccc2ccccc2c1)C1CNC1 (stereo not shown) | 211 | 
32 | Cc1cccc(OC(c2ccc3ccccc3c2)C2CNC2)c1.Cl (stereo not shown) | 210 | 
33 | Cl.FC(F)(F)Oc1ccccc1OC(c1ccc2ccccc2c1)C1CNC1 (stereo not shown) | 228 | 
34 | Cl.Fc1ccc(OC(c2ccc3ccccc3c2)C2CNC2)cc1F (stereo not shown) | 212 | 
35 | Cl.Fc1cc(C(Oc2cccc(Cl)c2)C2CNC2)ccc1Cl (stereo not shown) | 204 | 
36 | Cl.Fc1ccc(C(Oc2ccc(Cl)c(Cl)c2)C2CNC2)cc1Cl (stereo not shown) | 186 | 
37 | Cl.Fc1cc(C(Oc2ccc(Cl)c(Cl)c2)C2CNC2)ccc1Cl (stereo not shown) | 192 | 
38 | Cl.Fc1ccccc1OC(c1ccc(Cl)c(Cl)c1)C1CNC1 (stereo not shown) | 224 | 
39 | Cl.Fc1cc(C(Oc2ccc(OC(F)(F)F)cc2)C2CNC2)ccc1Cl (stereo not shown) | 151 | 
40 | Cc1ccccc1OC(c1ccc(F)c(F)c1)C1CNC1.Cl (stereo not shown) | 151 | 
41 | Cl.Fc1ccc(C(Oc2ccccc2)C2CNC2)cc1Cl (stereo not shown) | 208 | 
42 | Cl.Fc1ccc(C(Oc2ccccc2Cl)C2CNC2)cc1Cl (stereo not shown) | 188 | 
43 | COC(c1ccccc1)C1CNC1.Cl (stereo not shown) | 228 | 
44 | Cl.Clc1ccc(OC(c2ccc3ccccc3c2)C2CNC2)cc1Cl (stereo not shown) | 217 | 
45 | CCCOC(c1ccc(Cl)c(Cl)c1)C1CNC1.Cl (stereo not shown) | 151 | 
46 | Cl.Clc1cccc(OC(c2ccc3ccccc3c2)C2CNC2)c1 (stereo not shown) | 214 | 
47 | CCOC(c1ccc(Cl)c(Cl)c1)C1CNC1.Cl (stereo not shown) [KHG26757, 3-((3,4-dichlorophenyl)(ethoxy)methyl)azetidine hydrochloride] | 156 | IC50 [1]: 153 nM; inhibition at 10 µM [1]: 86%; IC50 [2]: 97.5 nM; inhibition at 10 µM [2]: 83%; inhibition at 10 µM [3]: 58%
48 | Cc1ccc(OC(c2ccc3ccccc3c2)C2CNC2)cc1.Cl (stereo not shown) | 203 | 
49 | Cc1ccc(OC(c2ccc(F)c(Cl)c2)C2CNC2)cc1.Cl (stereo not shown) | 183 | 
50 | Cl.Fc1cc(C(Oc2cccc(OC(F)(F)F)c2)C2CNC2)ccc1Cl (stereo not shown) | 145 | 
51 | Cl.c1ccc(C(Oc2ccc3ccccc3c2)C2CNC2)cc1 (stereo not shown) | 183 | 
52 | Cc1ccc(OC(c2ccc(F)c(F)c2)C2CNC2)cc1.Cl (stereo not shown) | 159 | 

Row | Structure (SMILES) | melting point [°C] | other results
53 | Cl.c1ccc(OC(c2ccc3ccccc3c2)C2CNC2)cc1 (stereo not shown) | 218 | 
54 | Cl.Fc1cc(C(Oc2ccccc2)C2CNC2)ccc1Cl (stereo not shown) | 201 | 
55 | Cl.Fc1ccc(OC(c2ccc(F)c(F)c2)C2CNC2)cc1 (stereo not shown) | 188 | 
56 | Cl.Fc1cccc(OC(c2ccc(F)c(Cl)c2)C2CNC2)c1 (stereo not shown) | 209 | 
57 | Cl.Fc1ccc(C(Oc2ccccc2Cl)C2CNC2)cc1F (stereo not shown) | 174 | 
58 | COC(c1ccc(Cl)c(Cl)c1)C1CNC1.Cl (stereo not shown) [KHG26756, 3-((3,4-dichlorophenyl)(methoxy)methyl)azetidine hydrochloride] | 109 | inhibition at 10 µM [1, 4]: 85%; IC50 [1, 5]: 339 nM; inhibition at 10 µM [2, 6]: 79%; IC50 [2, 7]: 271 nM; inhibition at 10 µM [3]: 54%
59 | Cl.Clc1cccc(OC(c2ccc(Cl)c(Cl)c2)C2CNC2)c1 (stereo not shown) | 169 | 
60 | Cl.FC(F)(F)Oc1cccc(OC(c2ccc3ccccc3c2)C2CNC2)c1 (stereo not shown) | 217 | 
61 | Cl.Fc1ccc(OC(c2ccc(F)c(Cl)c2)C2CNC2)cc1 (stereo not shown) | 211 | 
62 | Cl.Fc1cccc(OC(c2ccc(Cl)c(F)c2)C2CNC2)c1 (stereo not shown) | 217 | 
63 | Cc1ccccc1OC(c1ccc2ccccc2c1)C1CNC1.Cl (stereo not shown) | 213 | 
64 | Cc1cccc(OC(c2ccc(Cl)c(F)c2)C2CNC2)c1.Cl (stereo not shown) | 203 | 
65 | Cl.FC(F)(F)Oc1ccc(OC(c2ccc(Cl)c(Cl)c2)C2CNC2)cc1 (stereo not shown) | 217 | 
66 | Cl.Fc1cc(C(Oc2ccccc2F)C2CNC2)ccc1Cl (stereo not shown) | 198 | 
67 | Cl.Fc1cc(C(Oc2ccccc2OC(F)(F)F)C2CNC2)ccc1Cl (stereo not shown) | 166 | 
68 | Cl.Fc1ccc(C(Oc2ccccc2OC(F)(F)F)C2CNC2)cc1Cl (stereo not shown) | 157 | 
69 | Cl.Fc1ccc(OC(c2ccc(Cl)c(F)c2)C2CNC2)cc1 (stereo not shown) | 218 | 
70 | Cl.Clc1ccc(OC(c2ccc(Cl)c(Cl)c2)C2CNC2)cc1 (stereo not shown) | 201 | 
71 | Cc1ccc(OC(c2ccc(Cl)c(F)c2)C2CNC2)cc1.Cl (stereo not shown) | 173 | 
72 | Cc1cccc(OC(c2ccc(F)c(Cl)c2)C2CNC2)c1.Cl (stereo not shown) | 151 | 
73 | Cl.Fc1ccc(OC(c2ccc(Cl)c(Cl)c2)C2CNC2)cc1F (stereo not shown) | 240 | 
74 | CCCOC(c1ccc(F)c(F)c1)C1CNC1.Cl (stereo not shown) | 116 | 
75 | Cl.Fc1ccc(OC(c2ccc(Cl)c(F)c2)C2CNC2)cc1F (stereo not shown) | 216 | 
76 | Cl.Fc1cccc(OC(c2ccc(Cl)c(Cl)c2)C2CNC2)c1 (stereo not shown) | 218 | 
77 | CCCOC(c1ccc2ccccc2c1)C1CNC1.Cl (stereo not shown) | 223 | 
78 | Cc1ccccc1OC(c1ccc(Cl)c(F)c1)C1CNC1.Cl (stereo not shown) | 205 | 
